Among the data in publication PMC9516332 (Frontiers in Oncology, 2022) are inhibition values, retold here.

What all share (experiment): Kinase panel profiling at 1 µmol/L (MSA or IMAP), percentage inhibition
Holding throughout (format): biochemical

Test [1] deals with panel of 255 wild-type kinases (Homo sapiens, UniProt Q15375). Conditions: read-out: %-inhibition at 1 µmol/L, EPHA7.
The target in test [2] is T1, panel of 255 wild-type kinases (Homo sapiens, UniProt Q9UL54).
T1 sequence (Q9UL54 1-1235): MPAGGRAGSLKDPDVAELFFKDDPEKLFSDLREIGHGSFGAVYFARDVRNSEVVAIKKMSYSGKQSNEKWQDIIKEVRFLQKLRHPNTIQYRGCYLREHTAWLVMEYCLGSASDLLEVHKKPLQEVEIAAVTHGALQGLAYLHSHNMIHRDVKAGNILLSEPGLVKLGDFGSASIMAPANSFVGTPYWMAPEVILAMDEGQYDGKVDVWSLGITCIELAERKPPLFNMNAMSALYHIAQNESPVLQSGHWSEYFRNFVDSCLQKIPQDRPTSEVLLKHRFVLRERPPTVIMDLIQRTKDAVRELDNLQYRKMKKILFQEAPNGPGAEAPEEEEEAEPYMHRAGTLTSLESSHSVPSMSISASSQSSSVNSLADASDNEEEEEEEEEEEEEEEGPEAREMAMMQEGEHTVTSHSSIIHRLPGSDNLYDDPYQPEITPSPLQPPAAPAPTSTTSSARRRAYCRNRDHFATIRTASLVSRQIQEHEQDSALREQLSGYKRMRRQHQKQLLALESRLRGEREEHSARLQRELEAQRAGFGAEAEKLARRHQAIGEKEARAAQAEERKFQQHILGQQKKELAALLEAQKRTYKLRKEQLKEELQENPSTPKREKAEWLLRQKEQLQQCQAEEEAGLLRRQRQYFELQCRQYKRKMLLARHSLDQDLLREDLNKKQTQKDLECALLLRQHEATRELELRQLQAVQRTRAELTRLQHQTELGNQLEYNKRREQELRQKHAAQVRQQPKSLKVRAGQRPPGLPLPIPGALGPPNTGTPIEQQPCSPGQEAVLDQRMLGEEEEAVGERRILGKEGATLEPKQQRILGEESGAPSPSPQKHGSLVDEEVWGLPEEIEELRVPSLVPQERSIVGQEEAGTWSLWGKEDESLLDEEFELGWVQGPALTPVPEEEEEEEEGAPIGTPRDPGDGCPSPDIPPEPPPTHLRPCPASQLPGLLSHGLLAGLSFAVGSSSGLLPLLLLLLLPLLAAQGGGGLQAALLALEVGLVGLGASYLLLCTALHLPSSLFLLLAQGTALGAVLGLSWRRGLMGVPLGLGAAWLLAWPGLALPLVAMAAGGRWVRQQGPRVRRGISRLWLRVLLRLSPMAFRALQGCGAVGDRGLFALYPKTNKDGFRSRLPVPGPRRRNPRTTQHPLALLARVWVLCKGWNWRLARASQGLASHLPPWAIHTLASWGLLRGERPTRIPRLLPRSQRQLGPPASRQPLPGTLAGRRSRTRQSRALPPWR
Conditions: read-out: %-inhibition at 1 µmol/L, TAOK2.

The target in test [3] is panel of 255 wild-type kinases (Homo sapiens, UniProt Q86Z02). Conditions: read-out: %-inhibition at 1 µmol/L, HIPK1.
For test [4], the target named is T2, panel of 255 wild-type kinases (Homo sapiens, UniProt Q13470).
T2 sequence (Q13470 1-666): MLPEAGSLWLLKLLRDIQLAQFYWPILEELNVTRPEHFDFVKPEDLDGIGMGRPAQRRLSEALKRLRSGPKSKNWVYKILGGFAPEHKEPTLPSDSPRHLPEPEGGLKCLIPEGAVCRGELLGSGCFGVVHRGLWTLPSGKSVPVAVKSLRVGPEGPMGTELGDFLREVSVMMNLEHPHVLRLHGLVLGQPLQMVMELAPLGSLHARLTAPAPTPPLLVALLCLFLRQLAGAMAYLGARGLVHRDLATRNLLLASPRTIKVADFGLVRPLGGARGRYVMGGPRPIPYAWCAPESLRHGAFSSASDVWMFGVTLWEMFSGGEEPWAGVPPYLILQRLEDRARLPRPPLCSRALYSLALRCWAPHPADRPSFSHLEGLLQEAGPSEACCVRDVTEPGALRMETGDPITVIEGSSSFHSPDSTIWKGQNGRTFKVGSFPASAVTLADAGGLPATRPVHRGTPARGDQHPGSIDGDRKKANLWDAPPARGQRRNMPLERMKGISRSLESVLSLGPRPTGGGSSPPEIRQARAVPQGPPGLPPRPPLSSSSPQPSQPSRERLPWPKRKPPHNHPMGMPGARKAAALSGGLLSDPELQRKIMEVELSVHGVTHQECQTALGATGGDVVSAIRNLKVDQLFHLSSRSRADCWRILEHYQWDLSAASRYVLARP
The settings on record: read-out: %-inhibition at 1 µmol/L, TNK1.

[5] abbreviates: kinase EPHA7, 1 µmol/L single concentration.
The mark [6] stands for this setting: kinase TAOK2, 1 µmol/L single concentration.
Where [7] appears, read: kinase HIPK1, 1 µmol/L single concentration.
The mark [8] stands for this setting: kinase TNK1, 1 µmol/L single concentration.

Read-outs that look alike come from different tables or passages of the source.

As for `Cc1nc(NC(=O)N2CCC[C@H]2C(N)=O)sc1-c1ccnc(C(C)(C)C(F)(F)F)c1` [alpelisib], the inhibition at 1 µM in test [1] (setting [5]) was -1.3%; in test [2] (setting [6]), -1.44%; in test [3] (setting [7]) it was 9%; in test [4] (setting [8]) it was -4.23%.

As to `Cn1cc(-c2cc3c(N4CCN(c5ncc([C@@](C)(N)c6ccc(F)cc6)cn5)CC4)ncnn3c2)cn1` [avapritinib], the inhibition at 1 µM in test [1] (setting [5]) came to 13%; in test [2] (setting [6]), 6%; in test [3] (setting [7]), 1.58%; in test [4] (setting [8]), 19%.

Consider `Cn1cnc2c(F)c(Nc3ccc(Br)cc3F)c(C(=O)NOCCO)cc21` [binimetinib], for which the inhibition at 1 µM in test [1] (setting [5]) is 0.598%; in test [2] (setting [6]) it was 0.465%; in test [3] (setting [7]), 0.44%; in test [4] (setting [8]) it was -8%.

In the case of `CNC(=O)c1ccc(-c2cnc3ncc(Cc4ccc5ncccc5c4)n3n2)cc1F` [capmatinib], the inhibition at 1 µM was -0.309% in test [1], 3% in test [2], -2.58% in test [3] and -11% in test [4].

As for `COc1cc2ncnc(Nc3ccc(F)c(Cl)c3)c2cc1NC(=O)/C=C/CN1CCCCC1` [dacomitinib], the inhibition at 1 µM stood at 38% in test [1] (setting [5]), 1% in test [2] (setting [6]), 3.42% in test [3] (setting [7]) and 35% in test [4] (setting [8]).

With `C[C@H](Nc1ncnc2nc[nH]c12)c1cc2cccc(Cl)c2c(=O)n1-c1ccccc1` [duvelisib], the inhibition at 1 µM in test [1] (setting [5]) is -2.14%; in test [2] (setting [6]) it was -0.0517%; in test [3] (setting [7]) it was 0.739%; in test [4] (setting [8]), -2.72%.

Regarding `COC(=O)N[C@@H](C)CNc1nccc(-c2cn(C(C)C)nc2-c2cc(Cl)cc(NS(C)(=O)=O)c2F)n1` [encorafenib], the inhibition at 1 µM in test [1] (setting [5]) was 5%; in test [2] (setting [6]), -0.719%; in test [3] (setting [7]), 5.6%; in test [4] (setting [8]) it was -3.4%.

In the case of `CN1CCN(c2ccc(C(=O)Nc3n[nH]c4ccc(Cc5cc(F)cc(F)c5)cc34)c(NC3CCOCC3)c2)CC1` [entrectinib], the inhibition at 1 µM was found to be 44% in test [1] (setting [5]), 3% in test [2] (setting [6]), 11% in test [3] (setting [7]) and 99% in test [4] (setting [8]).

Turning to `CCc1nc(C(N)=O)c(Nc2ccc(N3CCC(N4CCN(C)CC4)CC3)c(OC)c2)nc1NC1CCOCC1` [gilteritinib], the inhibition at 1 µM in test [1] (setting [5]) came out at 79%; in test [2] (setting [6]), 9%; in test [3] (setting [7]) it was 71%; in test [4] (setting [8]), 97%.

In the case of `CCN1CCN(c2ccc(Nc3cc(N(C)C(=O)Nc4c(Cl)c(OC)cc(OC)c4Cl)ncn3)cc2)CC1` [infigratinib], the inhibition at 1 µM was -4% in test [1] (setting [5]), 91% in test [2] (setting [6]), -4.25% in test [3] (setting [7]) and 21% in test [4] (setting [8]).

Take `O=C(Nc1cnn2ccc(N3CCC[C@@H]3c3cc(F)ccc3F)nc12)N1CC[C@H](O)C1` [larotrectinib]: the inhibition at 1 µM was -0.152% in test [1] (setting [5]), 3.76% in test [2] (setting [6]), -3.73% in test [3] (setting [7]) and -0.876% in test [4] (setting [8]).

For `C[C@H]1Oc2cc(cnc2N)-c2c(nn(C)c2C#N)CN(C)C(=O)c2ccc(F)cc21` [lorlatinib], the inhibition at 1 µM in test [1] (setting [5]) was 56%; in test [2] (setting [6]), -1.11%; in test [3] (setting [7]), -1.71%; in test [4] (setting [8]), 97%.

Turning to `CCN1C(=O)N(c2c(F)c(OC)cc(OC)c2F)Cc2cnc3[nH]c(CN4CCOCC4)cc3c21` [pemigatinib], the inhibition at 1 µM in test [1] (setting [5]) is -0.619%; in test [2] (setting [6]), 48%; in test [3] (setting [7]), 1.47%; in test [4] (setting [8]), 5%.

Take `FC(F)(F)c1ccc(CNc2ccc(Cc3c[nH]c4ncc(Cl)cc34)cn2)cn1` [pexidartinib]: the inhibition at 1 µM in test [1] (setting [5]) came to 6.38%; in test [2] (setting [6]), 4%; in test [3] (setting [7]) it was 4.72%; in test [4] (setting [8]), 37%.

With `CO[C@]1(C(=O)N[C@@H](C)c2ccc(-n3cc(F)cn3)nc2)CC[C@H](c2nc(C)cc(Nc3cc(C)[nH]n3)n2)CC1` [pralsetinib], the inhibition at 1 µM in test [1] (setting [5]) stood at 68%; in test [2] (setting [6]) it was 14%; in test [3] (setting [7]), 13%; in test [4] (setting [8]), 71%.

Turning to `CCn1c(=O)c(-c2cc(NC(=O)Nc3ccccc3)c(F)cc2Br)cc2cnc(NC)cc21` [ripretinib], the inhibition at 1 µM in test [1] (setting [5]) is 54%; in test [2] (setting [6]), 89%; in test [3] (setting [7]), -5.27%; in test [4] (setting [8]), 17%.

Consider `COc1ccc(CN2C3CC2CN(c2ccc(-c4cc(OCC(C)(C)O)cn5ncc(C#N)c45)cn2)C3)cn1` [selpercatinib], for which the inhibition at 1 µM in test [1] (setting [5]) was 96%; in test [2] (setting [6]) it was 5.33%; in test [3] (setting [7]), -0.334%; in test [4] (setting [8]), 30%.

With `Cn1cnc2c(F)c(Nc3ccc(Br)cc3Cl)c(C(=O)NOCCO)cc21` [selumetinib], the inhibition at 1 µM in test [1] (setting [5]) was -1.78%; in test [2] (setting [6]), 3.77%; in test [3] (setting [7]), 0.0183%; in test [4] (setting [8]), -8%.

On to `Cc1cc(Nc2ncnc3ccc(NC4=NC(C)(C)CO4)cc23)ccc1Oc1ccn2ncnc2c1` [tucatinib], for which the inhibition at 1 µM in test [1] (setting [5]) came out at 1.07%; in test [2] (setting [6]) it was 5%; in test [3] (setting [7]) it was 11%; in test [4] (setting [8]) it was 4.33%.

Consider `C=CC(=O)N1CCC([C@@H]2CCNc3c(C(N)=O)c(-c4ccc(Oc5ccccc5)cc4)nn32)CC1` [zanubrutinib], for which the inhibition at 1 µM was 0.758% in test [1] (setting [5]), 4% in test [2] (setting [6]), -3.58% in test [3] (setting [7]) and 1.66% in test [4] (setting [8]).
